The subject of test [1] is Chenopodium spp., Papaver spp., Polygonum spp., Veronica spp. or Viola spp. Briefly: Post-emergence effect on weeds (greenhouse pot test, visual scoring). The test is classed as in vivo, monocotyledonous and dicotyledonous weeds. As to conditions: treated at three-leaf stage; visual scoring after about 3 to 4 weeks; application rate of 0.5 kg and less of active substance per hectare.

The test system of test [2] is Cyperus spp., Echinochloa spp., Digitaria spp., Sagitaria spp. and Scirpus spp. The experiment in a line: Action on harmful plants in rice (paddy rice conditions, visual scoring). The test is classed as in vivo, typical rice weeds (gramineous and broad-leaved). As to conditions: applied into the dammed water, visual scoring about three weeks after application. The text has this: Transplanted and sown rice and also typical rice weeds (gramineous and broad-leaved) are cultivated in closed plastic pots in a greenhouse to the three-leaf stage (Echinochloa crus-galli 1.5-leaf) under paddy rice conditions (dammed height of water: 2-3 cm). This is followed by treatment with the compounds according to the invention. […] After this treatment, the test plants are set up in a greenhouse under optimum growth conditions and are maintained in this way throughout the test period.

Consider 15 molecules from patent US20030224942A1, “Alkylamino-1,3,5-triazines, processes for their preparation and their use as herbicides and plant growth regulators” (priority 2001, published 2003).

Consider `CCc1nc(N)nc(NC(C)c2ccc(F)c(C(F)=C(F)F)c2)n1` (stereo not drawn) [Product P7.5], for which the “herbicidal activity post-emergence against harmful plants” value (“herbicidal activity post-emergence” below) in test [1] is listed as “very good herbicidal activity”. For the same molecule, the “herbicidal activity against harmful plants which are typical for rice crops” value (“herbicidal activity … for rice crops” below) in test [2] is “very good herbicidal activity”.

For `CC#Cc1cc(C(Nc2nc(N)nc(C(F)CC)n2)C2CC2)ccc1F` (stereo not drawn) [Product P29.384], in test [1], the “herbicidal activity post-emergence” value is recorded as “very good herbicidal activity”. Also, the “herbicidal activity … for rice crops” value in test [2] is on record as “very good herbicidal activity”.

With `C#Cc1c(F)cc(CNc2nc(N)nc(CC)n2)cc1F` [Product P6.352], in test [1], the “herbicidal activity post-emergence” value is reported as “very good herbicidal activity”. For the same molecule, in test [2], the “herbicidal activity … for rice crops” value is given as “very good herbicidal activity”.

Regarding `CC#Cc1c(F)cc(C(Nc2nc(C)nc(N)n2)C2CC2)cc1F` (stereo not drawn) [Product P4.428], the “herbicidal activity post-emergence” value in test [1] was “very good herbicidal activity”. The “herbicidal activity … for rice crops” value in test [2] is recorded as “very good herbicidal activity”.

In the case of `C#Cc1c(C)cc(C(C)Nc2nc(N)nc(C(C)(C)F)n2)cc1C` (stereo not drawn) [Product P17.348], in test [1], the “herbicidal activity post-emergence” value was “very good herbicidal activity”. Besides, the “herbicidal activity … for rice crops” value in test [2] was “very good herbicidal activity”.

Consider `CC(C)(F)c1nc(N)nc(NCc2cccc(C3CC3)c2)n1` [Product P16.1603], for which the “herbicidal activity post-emergence” value in test [1] is “very good herbicidal activity”. Further, the “herbicidal activity … for rice crops” value in test [2] is recorded as “very good herbicidal activity”.

Turning to `CC#Cc1cc(CNc2nc(C)nc(N)n2)ccc1F` [Product P1.384], the “herbicidal activity post-emergence” value in test [1] is on record as “very good herbicidal activity”. The “herbicidal activity … for rice crops” value in test [2] is “very good herbicidal activity”.

In the case of `CC#Cc1ccc(CNc2nc(N)nc(C(F)CC)n2)cc1` (stereo not drawn) [Product P26.1583], the “herbicidal activity post-emergence” value in test [1] is given as “very good herbicidal activity”. Also, the “herbicidal activity … for rice crops” value in test [2] is “very good herbicidal activity”.

As to `CC(C)(F)c1nc(N)nc(NCc2ccc(F)c(C(F)=C(F)F)c2)n1` [Product P16.5], the “herbicidal activity post-emergence” value in test [1] is “very good herbicidal activity”. For the same molecule, in test [2], the “herbicidal activity … for rice crops” value is listed as “very good herbicidal activity”.

Regarding `Cc1nc(N)nc(NCc2cccc(C3CC3)c2)n1` [Product P1.1603], in test [1], the “herbicidal activity post-emergence” value is recorded as “very good herbicidal activity”. Besides, the “herbicidal activity … for rice crops” value in test [2] is recorded as “very good herbicidal activity”.

As for `CC(O)C#Cc1cccc(C(C)Nc2nc(N)nc(C(C)F)n2)c1` (stereo not drawn) [Product P22.1600], the “herbicidal activity post-emergence” value in test [1] is recorded as “very good herbicidal activity”. In addition, the “herbicidal activity … for rice crops” value in test [2] is “very good herbicidal activity”.

On to `CC#Cc1ccc(C(C)Nc2nc(N)nc(CC)n2)cc1` (stereo not drawn) [Product P7.1583], for which the “herbicidal activity post-emergence” value in test [1] is recorded as “very good herbicidal activity”. Moreover, the “herbicidal activity … for rice crops” value in test [2] is “very good herbicidal activity”.

On to `C#Cc1ccc(C(C)Nc2nc(N)nc(C(F)CC)n2)cc1C` (stereo not drawn) [Product P27.335], for which the “herbicidal activity post-emergence” value in test [1] is given as “very good herbicidal activity”. Also, in test [2], the “herbicidal activity … for rice crops” value was “very good herbicidal activity”.

Take `CC#Cc1cccc(CNc2nc(C)nc(N)n2)c1` [Product P1.1582]: the “herbicidal activity post-emergence” value in test [1] is recorded as “very good herbicidal activity”. In addition, in test [2], the “herbicidal activity … for rice crops” value is given as “very good herbicidal activity”.

Consider `CCCCC#Cc1cc(C(C)Nc2nc(N)nc(C(C)(C)F)n2)ccc1F` (stereo not drawn) [Product P17.688], for which the “herbicidal activity post-emergence” value in test [1] is on record as “very good herbicidal activity”. Moreover, the “herbicidal activity … for rice crops” value in test [2] was “very good herbicidal activity”.
